The record followed here is US11078170B2 (Assembly Biosciences, Inc., priority 2017, dated 2021).

Molecules are shown by their SMILES.

For the assay, the system named is HBV viral production from HepAD38 cells. Briefly: Activity of test compounds on viral production from HepAD38 cells (viral load by qPCR of HBV core sequence in supernatant). To be noted: Hepatitis B virus, 120 h, 5 days incubation, HBV DNA in supernatant by qPCR, top concentration 10 μM, read-out: Viral Load EC50 Activity range. The class given is cell-based. Summed up: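 HepAD38 cells, 50,000/well in tetracycline-free 2% FBS medium, treated 5 days at 37° C. with compound from 10 μM top concentration. HBV DNA in supernatant quantified by TaqMan qPCR of core sequence against DNA standards, relative to DMSO wells; CellTiter-Glo viability read in parallel. EC50/CC50 from four-parameter logistic fit.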
On the technique in general: In qPCR the cycle at which signal appears reflects the starting amount.
In the case of `O=C(Nc1ccc(F)c(Cl)c1)[C@@H]1C[C@H](c2nccs2)NS(=O)(=O)N1CCOCc1ccccc1` [HBV-CSU-095-ISO-II, Cis-2-(2-(benzyloxy)ethyl)-N-(3-chloro-4-fluorophenyl)-5-(thiazol-2-yl)-1,2,6-thiadiazinane-3-carboxamide 1,1-dioxide], the EC50 was 1 to 5 µM. Take `O=C(Nc1ccc(F)c(Cl)c1)C1CC(c2nccs2)NS(=O)(=O)N1` (stereo not drawn) [HBV-CSU-096, Cis-N-(3-Chloro-4-fluorophenyl)-5-(thiazol-2-yl)-1,2,6-thiadiazinane-3-carboxamide 1,1-dioxide]: the EC50 was 1 to 5 µM. The same measure for `O=C(Nc1ccc(F)c(Cl)c1)[C@H]1C[C@@H](c2nccs2)NS(=O)(=O)N1` [HBV-CSU-096-ISO-I, Cis-N-(3-Chloro-4-fluorophenyl)-5-(thiazol-2-yl)-1,2,6-thiadiazinane-3-carboxamide 1,1-dioxide]: above 5 µM. Under `O=C(Nc1ccc(F)c(Cl)c1)[C@@H]1C[C@H](c2nccs2)NS(=O)(=O)N1` [HBV-CSU-096-ISO-II, Cis-N-(3-Chloro-4-fluorophenyl)-5-(thiazol-2-yl)-1,2,6-thiadiazinane-3-carboxamide 1,1-dioxide] stands below 1 µM. Under `O=C(Nc1ccc(F)c(Cl)c1)C1CC(c2nccs2)NS(=O)(=O)N1CCO` (stereo not drawn) [HBV-CSU-097, Cis-N-(3-Chloro-4-fluorophenyl)-2-(2-hydroxyethyl)-5-(thiazol-2-yl)-1,2,6-thiadiazinane-3-carboxamide 1,1-dioxide] stands above 5 µM; under `O=C(Nc1ccc(F)c(Cl)c1)[C@H]1C[C@@H](c2nccs2)NS(=O)(=O)N1CCO` [HBV-CSU-097-ISO-I, Cis-N-(3-Chloro-4-fluorophenyl)-2-(2-hydroxyethyl)-5-(thiazol-2-yl)-1,2,6-thiadiazinane-3-carboxamide 1,1-dioxide], above 5 µM.

Regarding `CCN(CC)CCCN1[C@@H](C(=O)Nc2ccc(F)c(Cl)c2)C[C@@H](c2nccs2)NS1(=O)=O` [HBV-CSU-101-ISO-I, Cis-N-(3-Chloro-4-fluorophenyl)-2-(3-(diethylamino)propyl)-5-(thiazol-2-yl)-1,2,6-thiadiazinane-3-carboxamide 1,1-dioxide], the EC50 is above 5 µM.

In the case of `O=C(Nc1ccc(F)c(Cl)c1)C1CC(c2nccs2)NS(=O)(=O)N1CCCN1CCCC1` (stereo not drawn) [HBV-CSU-102, Cis-N-(3-Chloro-4-fluorophenyl)-2-(3-(pyrrolidin-1-yl)propyl)-5-(thiazol-2-yl)-1,2,6-thiadiazinane-3-carboxamide 1,1-dioxide], the EC50 is above 5 µM. In the case of `O=C(Nc1ccc(F)c(Cl)c1)[C@H]1C[C@@H](c2nccs2)NS(=O)(=O)N1CCCN1CCCC1` [HBV-CSU-102-ISO-I, Cis-N-(3-Chloro-4-fluorophenyl)-2-(3-(pyrrolidin-1-yl)propyl)-5-(thiazol-2-yl)-1,2,6-thiadiazinane-3-carboxamide 1,1-dioxide], the EC50 was above 5 µM. Under `O=C(Nc1ccc(F)c(Cl)c1)[C@@H]1C[C@H](c2nccs2)NS(=O)(=O)N1CCCN1CCCC1` [HBV-CSU-102-ISO-II, Cis-N-(3-Chloro-4-fluorophenyl)-2-(3-(pyrrolidin-1-yl)propyl)-5-(thiazol-2-yl)-1,2,6-thiadiazinane-3-carboxamide 1,1-dioxide] stands above 5 µM; under `O=C(Nc1ccc(F)c(Cl)c1)C1CC(c2nccs2)NS(=O)(=O)N1CCCN1CCOCC1` (stereo not drawn) [HBV-CSU-103, Cis-N-(3-Chloro-4-fluorophenyl)-2-(3-morpholinopropyl)-5-(thiazol-2-yl)-1,2,6-thiadiazinane-3-carboxamide 1,1-dioxide], above 5 µM. The same measure for `O=C(Nc1ccc(F)c(Cl)c1)[C@@H]1C[C@H](c2nccs2)NS(=O)(=O)N1CCCN1CCOCC1` [HBV-CSU-103-ISO-II]: 1 to 5 µM. The same measure for `O=C(Nc1ccc(F)c(Cl)c1)[C@H]1C[C@@H](c2nccs2)NS(=O)(=O)N1CCCN1CCOCC1` [HBV-CSU-103-ISO-I]: above 5 µM.

A word on the EC50: it is the concentration that produces a half-maximal response.
